Laboratory results taken from article PMC8248052 (Chembiochem, 2021).

Biological target: T1, SMYD3 (Homo sapiens, UniProt Q9H7B4)
T1 sequence (Q9H7B4 1-428): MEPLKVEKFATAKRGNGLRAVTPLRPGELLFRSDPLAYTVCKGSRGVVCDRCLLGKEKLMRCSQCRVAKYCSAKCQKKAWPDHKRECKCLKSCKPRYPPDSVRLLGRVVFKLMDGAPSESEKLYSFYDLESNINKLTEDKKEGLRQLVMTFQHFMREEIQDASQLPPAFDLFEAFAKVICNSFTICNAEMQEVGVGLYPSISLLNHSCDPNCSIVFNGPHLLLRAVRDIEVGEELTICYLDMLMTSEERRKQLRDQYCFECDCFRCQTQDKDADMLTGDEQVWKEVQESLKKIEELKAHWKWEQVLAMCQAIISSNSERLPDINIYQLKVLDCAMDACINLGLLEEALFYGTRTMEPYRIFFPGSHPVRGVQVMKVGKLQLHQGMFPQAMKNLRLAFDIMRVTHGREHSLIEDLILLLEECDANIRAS
Assay: LC-MS methyltransferase assay, MAP3K2 […]-274 peptide, inhibition at […]
Assay type: biochemical
Settings: 0.63 µM

Structure (SMILES): O=C1Cc2cc(C(=O)NC3C[C@H]4CC[C@@H](C3)N4S(=O)(=O)CC3CCN(CCCC(F)(F)F)CC3)c(Cl)cc2N1 (stereo partly shown) [EPZ031686]
- Inhibition [%]: 52.8±1.7
